Measured values: ChEMBL document CHEMBL1201862, “PubChem BioAssay data set” (2004)
Values joined by “and” are separate entries in the source; they are usually repeats but may differ in a detail not shown here. Equal entries are not always repeated. Active and inactive are the calls of the source.

Key:
[1] = target: T1, Aryl hydrocarbon receptor (Homo sapiens, UniProt P35869); assay: Luminescence-based cell-based high throughput dose response assay for activators of the Aryl Hydrocarbon Receptor (AHR). [Related pubchem assays: 2796 (Primary screen (AHR activators in singlicate)), 2845 (Confirmation screen (AHR activators in triplicate)), 434939 (Counterscreen (PXR activators in triplicate)), 2804 (Summary (AHR activators))]; type: ADME
T1 sequence (P35869 whole entry): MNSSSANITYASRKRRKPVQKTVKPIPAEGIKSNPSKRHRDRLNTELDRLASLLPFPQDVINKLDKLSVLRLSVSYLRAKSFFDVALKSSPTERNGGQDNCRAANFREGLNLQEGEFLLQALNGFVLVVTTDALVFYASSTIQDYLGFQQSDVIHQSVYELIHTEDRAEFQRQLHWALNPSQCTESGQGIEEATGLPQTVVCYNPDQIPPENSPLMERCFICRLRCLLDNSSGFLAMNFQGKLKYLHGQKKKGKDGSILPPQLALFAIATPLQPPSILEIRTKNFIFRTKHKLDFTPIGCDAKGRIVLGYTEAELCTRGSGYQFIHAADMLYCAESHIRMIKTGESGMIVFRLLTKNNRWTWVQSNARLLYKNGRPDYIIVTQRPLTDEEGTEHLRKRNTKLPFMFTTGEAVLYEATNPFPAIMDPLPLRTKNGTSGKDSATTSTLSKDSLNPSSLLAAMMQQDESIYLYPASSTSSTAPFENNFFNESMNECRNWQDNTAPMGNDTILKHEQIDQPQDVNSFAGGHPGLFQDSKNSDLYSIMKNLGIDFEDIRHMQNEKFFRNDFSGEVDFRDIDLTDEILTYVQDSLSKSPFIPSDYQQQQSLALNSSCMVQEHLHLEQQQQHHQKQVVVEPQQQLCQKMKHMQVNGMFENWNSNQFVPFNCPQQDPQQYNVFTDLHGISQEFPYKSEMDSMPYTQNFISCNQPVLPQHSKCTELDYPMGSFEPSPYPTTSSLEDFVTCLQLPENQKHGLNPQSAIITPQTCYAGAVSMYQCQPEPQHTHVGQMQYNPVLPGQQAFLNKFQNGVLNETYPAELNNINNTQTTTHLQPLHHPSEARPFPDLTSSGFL

[2] = viability loss in THP-1 monocytes – THP-1 cells, cytotoxicity control for Vif-APOBEC3G degradation inhibitor project, dose response (AID 1117359); type: functional; details: THP-1
Genome polyprotein = Genome polyprotein (Hepatitis C virus, UniProt Q2Q167); assay: disruption of hepatitis C core self-association – biochemical, TR-FRET, dose response (AID 2159); design: species or system Hepacivirus hominis;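 note: blocks dimerization of HCV core protein measured by TR-FRET between tagged core106 pairs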
Cytochrome P450 2C19 = Cytochrome P450 2C19 (Homo sapiens, UniProt P33261); assay: qHTS Assay for Inhibitors and Substrates of Cytochrome P450 2C19. [Related pubchem assays: 410 ]; type: ADME; details: read-out: Potency
Cytochrome P450 2D6 = Cytochrome P450 2D6 (Homo sapiens, UniProt P10635); assay: qHTS Assay for Inhibitors and Substrates of Cytochrome P450 2D6. [Related pubchem assays: 410 ]; type: ADME; details: read-out: Potency
[3] = target: Bifunctional protein GlmU (Mycobacterium tuberculosis, UniProt P9WMN3); assay: Inhibitors of Mycobacterial Glucosamine-1-phosphate acetyl transferase (GlmU). Secondary screen.; design: species or system Mycobacterium tuberculosis H37Rv
[4] = target: T2, Long-chain-fatty-acid--AMP ligase FadD28 (Mycobacterium tuberculosis, UniProt P9WQ59); assay: Fluorescence polarization aasay to screen for inhibitors that compete for the binding of FadD28 to a bisubstrate Measured in Biochemical System Using Plate Reader - 2147-01_Inhibitor_Dose_CherryPick_Activity.; type: functional, Mycobacterium tuberculosis H37Rv
T2 sequence (P9WQ59 whole entry): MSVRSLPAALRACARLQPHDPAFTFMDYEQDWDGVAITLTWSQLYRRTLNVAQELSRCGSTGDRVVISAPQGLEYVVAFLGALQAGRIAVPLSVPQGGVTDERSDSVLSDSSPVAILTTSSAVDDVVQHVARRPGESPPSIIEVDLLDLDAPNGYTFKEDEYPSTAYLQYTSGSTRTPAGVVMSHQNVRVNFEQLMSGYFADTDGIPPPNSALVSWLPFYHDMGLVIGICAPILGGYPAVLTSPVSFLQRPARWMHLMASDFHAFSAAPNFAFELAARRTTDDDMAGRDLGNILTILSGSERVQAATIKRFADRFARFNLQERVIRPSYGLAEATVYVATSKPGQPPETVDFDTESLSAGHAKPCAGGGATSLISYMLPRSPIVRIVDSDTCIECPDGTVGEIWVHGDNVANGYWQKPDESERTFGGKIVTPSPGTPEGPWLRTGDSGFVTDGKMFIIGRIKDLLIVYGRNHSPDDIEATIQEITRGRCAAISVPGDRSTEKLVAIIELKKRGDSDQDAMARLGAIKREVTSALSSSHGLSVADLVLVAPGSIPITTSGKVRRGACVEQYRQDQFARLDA

[5] = test system: Streptococcus sp. 'group A'; assay: Streptococcus pyogenes SK(-)GAS viability under kanamycin – luminescence, BacTiterGlo, confirmation, counter-screen for streptokinase expression inhibitor project, dose response (AID 1900); type: functional, organism-based
Streptokinase A = target: T3, Streptokinase A (Streptococcus pyogenes serotype M1, UniProt P10520); assay: viability-normalized secreted streptokinase activity reduction – plasminogen activation absorbance, OD405, dose response (AID 1914); type: functional, Streptococcus pyogenes M1 GAS;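 note: secreted streptokinase activity via plasminogen activation per viability signal from cell pellet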
T3 sequence (P10520 whole entry): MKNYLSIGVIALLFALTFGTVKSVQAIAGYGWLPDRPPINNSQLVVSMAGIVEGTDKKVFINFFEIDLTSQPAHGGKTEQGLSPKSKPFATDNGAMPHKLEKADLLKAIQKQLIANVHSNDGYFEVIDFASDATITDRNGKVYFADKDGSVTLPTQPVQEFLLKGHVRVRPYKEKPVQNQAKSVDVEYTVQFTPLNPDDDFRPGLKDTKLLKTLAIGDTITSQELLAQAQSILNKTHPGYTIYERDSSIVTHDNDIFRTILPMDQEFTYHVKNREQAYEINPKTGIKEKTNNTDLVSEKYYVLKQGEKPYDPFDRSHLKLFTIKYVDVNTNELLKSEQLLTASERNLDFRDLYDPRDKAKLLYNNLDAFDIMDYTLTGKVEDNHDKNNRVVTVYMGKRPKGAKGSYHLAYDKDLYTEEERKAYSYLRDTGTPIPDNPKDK

[6] = target: T4, Mannose-6-phosphate isomerase (Homo sapiens, UniProt P34949); assay: MPI enzyme activity inhibition – biochemical, fluorescence intensity, coupled assay, primary screen (AID 1209)
T4 sequence (P34949 whole entry): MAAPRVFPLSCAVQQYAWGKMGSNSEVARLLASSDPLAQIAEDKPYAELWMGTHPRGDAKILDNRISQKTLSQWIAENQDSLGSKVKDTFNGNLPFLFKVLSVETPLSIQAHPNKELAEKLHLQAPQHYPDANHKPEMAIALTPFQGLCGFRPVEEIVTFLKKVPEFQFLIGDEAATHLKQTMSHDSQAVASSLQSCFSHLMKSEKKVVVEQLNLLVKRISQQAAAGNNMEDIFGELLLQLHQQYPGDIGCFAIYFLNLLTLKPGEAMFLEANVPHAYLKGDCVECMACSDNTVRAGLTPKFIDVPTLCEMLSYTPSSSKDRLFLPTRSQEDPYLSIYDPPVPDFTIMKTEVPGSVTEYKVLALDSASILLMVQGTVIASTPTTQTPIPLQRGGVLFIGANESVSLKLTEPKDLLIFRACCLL

Streptococcus = assay: GAS UMAA2166 growth inhibition – luminescence, BacTiterGlo, counter-screen for streptokinase expression inhibitor project, dose response (AID 1915); type: functional, organism-based;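 note: potency for reduction of bacterial viability or growth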
[7] = target: T4, Mannose-6-phosphate isomerase; assay: MPI inhibition at elevated mannose 6-phosphate – biochemical, fluorescence intensity, high mannose 6-phosphate, primary screen (AID 1220)
Estrogen receptor = target: T5, Estrogen receptor (Homo sapiens, UniProt P03372); assay: ERα coactivator recruitment enhancers – biochemical, TR-FRET, ERα LBD, dose response (AID 737)
T5 sequence (P03372 whole entry): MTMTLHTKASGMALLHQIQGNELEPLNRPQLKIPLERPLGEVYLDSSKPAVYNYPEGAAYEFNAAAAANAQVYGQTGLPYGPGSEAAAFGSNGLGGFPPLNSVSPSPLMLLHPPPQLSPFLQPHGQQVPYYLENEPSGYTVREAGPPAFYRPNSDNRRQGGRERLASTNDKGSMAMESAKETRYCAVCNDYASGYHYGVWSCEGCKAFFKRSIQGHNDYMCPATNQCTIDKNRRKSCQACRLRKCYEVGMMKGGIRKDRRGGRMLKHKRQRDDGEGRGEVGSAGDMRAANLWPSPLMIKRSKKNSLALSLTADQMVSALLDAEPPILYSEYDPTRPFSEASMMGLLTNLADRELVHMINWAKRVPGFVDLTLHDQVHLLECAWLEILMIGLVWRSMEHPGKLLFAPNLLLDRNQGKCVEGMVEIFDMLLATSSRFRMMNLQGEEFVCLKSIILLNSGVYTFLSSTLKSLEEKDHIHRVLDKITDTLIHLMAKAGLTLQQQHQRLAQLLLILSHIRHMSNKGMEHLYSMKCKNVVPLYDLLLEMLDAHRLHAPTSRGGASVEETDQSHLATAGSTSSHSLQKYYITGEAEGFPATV

Protein skinhead-1 = target: T6, Protein skinhead-1 (Caenorhabditis elegans, UniProt P34707); type: functional
T6 sequence (P34707 whole entry): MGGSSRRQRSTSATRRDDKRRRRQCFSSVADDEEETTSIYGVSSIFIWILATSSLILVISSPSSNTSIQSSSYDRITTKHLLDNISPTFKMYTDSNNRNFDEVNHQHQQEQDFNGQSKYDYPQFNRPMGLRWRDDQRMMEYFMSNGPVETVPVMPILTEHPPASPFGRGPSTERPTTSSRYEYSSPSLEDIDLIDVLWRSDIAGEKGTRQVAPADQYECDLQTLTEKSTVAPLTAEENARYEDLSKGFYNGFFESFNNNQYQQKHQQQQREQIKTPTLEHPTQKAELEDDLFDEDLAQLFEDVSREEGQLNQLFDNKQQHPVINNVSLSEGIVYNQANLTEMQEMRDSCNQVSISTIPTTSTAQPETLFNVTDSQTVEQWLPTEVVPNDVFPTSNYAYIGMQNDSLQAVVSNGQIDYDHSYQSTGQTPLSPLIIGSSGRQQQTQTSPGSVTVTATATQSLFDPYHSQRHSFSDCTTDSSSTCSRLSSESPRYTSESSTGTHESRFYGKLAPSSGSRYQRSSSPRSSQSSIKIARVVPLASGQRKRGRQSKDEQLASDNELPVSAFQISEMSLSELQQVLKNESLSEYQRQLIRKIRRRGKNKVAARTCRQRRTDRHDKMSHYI

[8] = blockers of bursicon-stimulated LGR2 cAMP reporter – cell-based, HEK293, CRE-luciferase reporter, cherry pick, set 2, dose response (AID 743343); type: functional;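 note: transfected cells were stimulated with diluted bursicon conditioned medium after compound addition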
[9] = blockade of melanocortin 4 receptor signaling – cell-based, plate reader, cherry pick, counter-screen for LGR2 antagonist project, dose response (AID 743444); type: functional;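 note: transfected HEK 293 cells stimulated with alpha-MSH peptide; potency of inhibitors of the alpha-MSH evoked signal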

Chain of Cytochrome P450 2C19 (P33261 whole entry): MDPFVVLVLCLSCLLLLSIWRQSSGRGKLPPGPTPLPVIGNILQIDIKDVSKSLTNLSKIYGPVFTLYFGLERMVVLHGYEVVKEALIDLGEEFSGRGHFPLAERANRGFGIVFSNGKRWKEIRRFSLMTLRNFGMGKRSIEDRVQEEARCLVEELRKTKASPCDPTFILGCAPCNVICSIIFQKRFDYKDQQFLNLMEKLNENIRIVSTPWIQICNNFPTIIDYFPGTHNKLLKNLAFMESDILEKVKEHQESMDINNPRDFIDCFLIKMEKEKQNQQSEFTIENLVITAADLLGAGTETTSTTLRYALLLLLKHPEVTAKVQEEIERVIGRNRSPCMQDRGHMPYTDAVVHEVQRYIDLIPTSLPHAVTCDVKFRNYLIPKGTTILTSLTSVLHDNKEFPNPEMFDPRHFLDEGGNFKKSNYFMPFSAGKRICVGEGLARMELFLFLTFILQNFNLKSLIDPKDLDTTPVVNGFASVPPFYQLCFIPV
Chain of Cytochrome P450 2D6 (P10635 whole entry): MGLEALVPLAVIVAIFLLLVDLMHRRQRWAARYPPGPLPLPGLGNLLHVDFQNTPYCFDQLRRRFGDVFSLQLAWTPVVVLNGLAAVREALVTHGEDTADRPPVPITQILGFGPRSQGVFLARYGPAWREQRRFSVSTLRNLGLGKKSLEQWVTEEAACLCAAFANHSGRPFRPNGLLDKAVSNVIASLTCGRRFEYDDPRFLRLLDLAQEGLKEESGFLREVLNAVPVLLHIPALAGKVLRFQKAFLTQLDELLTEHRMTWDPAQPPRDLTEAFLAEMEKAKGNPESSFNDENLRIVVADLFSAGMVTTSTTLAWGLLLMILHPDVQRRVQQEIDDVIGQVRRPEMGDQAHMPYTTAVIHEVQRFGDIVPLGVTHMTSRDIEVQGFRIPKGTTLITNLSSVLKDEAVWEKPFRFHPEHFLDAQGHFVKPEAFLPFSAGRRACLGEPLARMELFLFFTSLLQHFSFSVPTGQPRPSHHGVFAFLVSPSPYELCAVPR
Chain of Genome polyprotein (Q2Q167 whole entry): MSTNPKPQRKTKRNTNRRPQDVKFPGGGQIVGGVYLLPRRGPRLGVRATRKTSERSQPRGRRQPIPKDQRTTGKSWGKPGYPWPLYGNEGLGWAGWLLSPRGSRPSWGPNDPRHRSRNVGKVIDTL
Chain of Bifunctional protein GlmU (P9WMN3 whole entry): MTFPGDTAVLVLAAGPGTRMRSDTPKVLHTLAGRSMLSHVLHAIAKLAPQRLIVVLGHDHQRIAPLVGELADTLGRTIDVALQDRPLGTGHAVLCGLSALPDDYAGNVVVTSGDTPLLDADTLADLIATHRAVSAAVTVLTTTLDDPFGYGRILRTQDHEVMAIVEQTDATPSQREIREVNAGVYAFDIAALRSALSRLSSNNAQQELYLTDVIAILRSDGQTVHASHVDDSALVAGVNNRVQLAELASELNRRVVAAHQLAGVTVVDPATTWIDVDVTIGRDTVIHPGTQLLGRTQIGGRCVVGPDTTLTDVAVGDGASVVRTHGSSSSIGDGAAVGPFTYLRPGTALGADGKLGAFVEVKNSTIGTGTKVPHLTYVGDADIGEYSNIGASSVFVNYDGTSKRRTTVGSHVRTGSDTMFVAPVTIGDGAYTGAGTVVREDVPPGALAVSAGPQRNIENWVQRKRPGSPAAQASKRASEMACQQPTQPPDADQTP

Cc1cc(Nc2ccc(Br)cc2)n2nc(C)nc2n1
EC50 [1]: 0.117 µM (active) | CC50 [2]: > 40 µM (active)

COc1ccc(-n2c(-c3ccc(Br)cc3)nc(=S)c3c2CCCC3)cc1
IC50 (Genome polyprotein): > 49.8 µM (not active)

CCCCC1CN2C(CCC(C)C2c2ccc(Br)cc2)C(=O)O1 (stereo not drawn)
AC50 (Cytochrome P450 2C19): 3.16 µM (inconclusive) and 7.94 µM (inconclusive) | AC50 (Cytochrome P450 2D6; human): 3.16 µM (inconclusive) | AC50 (Cytochrome P450 2D6): 3.16 µM (inconclusive)

Cc1cc(N)n(-c2ccc(Oc3ccccc3)c(S(=O)(=O)O)c2)n1
IC50 [3]: 123 µM (active) | AC50 [4]: > 100 µM (inactive)

Cc1ccc(/N=C/c2cccc(O)c2O)c(C)c1
EC50 [5]: > 150 µM (not active) | EC50 (Streptokinase A): > 150 µM (not active) | IC50 [6]: 23.3 µM (active) | EC50 (Streptococcus): 7.41 µM (active) | IC50 [7]: 14 µM (active)

CC1C=CCCOC1c1ccccc1 (stereo not drawn)
AC50 (Cytochrome P450 2C19): 3.98 µM (inconclusive)

O=C(Nc1cccnc1)c1cc(-c2ccc3c(c2)OCO3)on1
EC50 (Estrogen receptor): 12.9 µM (not active) | IC50 (Protein skinhead-1): > 100 µM (inactive) | AC50 [8]: 5.5 µM (active) | AC50 [9]: 5.56 µM (active)
